Experimental data taken from paper PMC4172049 (Drug Design, Development and Therapy, 2014).

Molecular target: T1, Human recombinant sPLA2-V (Homo sapiens, UniProt P39877)
T1 sequence (P39877 21-138): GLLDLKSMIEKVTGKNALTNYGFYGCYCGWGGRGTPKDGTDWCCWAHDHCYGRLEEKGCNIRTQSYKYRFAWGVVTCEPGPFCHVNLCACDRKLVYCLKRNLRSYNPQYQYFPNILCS
Assay: sPLA2-V activity assay

IC50: 650 ± 150 nM
SMILES: C[C@@H]1C[C@H]2[C@@H]3CCC4=CC(=O)C=C[C@]4(C)[C@@]3(F)[C@@H](O)C[C@]2(C)[C@@]1(O)C(=O)CO [Dexamethasone]
